The text below walks through data of patent US7067503B2, “17-aryl linker derivatised estrogen 3-sulphamates as inhibitors of steroid sulphatase” (priority 2000, dated 2006).

As usually defined, the melting point is the temperature, or range, at which the solid turns liquid. For orientation: inhibition means the drop in the measured response relative to a control, in per cent. By IC50 is commonly meant the concentration that inhibits the measured activity by half.

Like-named read-outs stand apart in the source and are kept apart here.

The subject of data set [1] is T47D cell. Description: T47D cell growth, % inhibition. It is filed as cell-based. To be noted: Homo sapiens.
Data set [2] has as its target T1, STS (Homo sapiens, UniProt P08842).
T1 sequence (P08842 22-583): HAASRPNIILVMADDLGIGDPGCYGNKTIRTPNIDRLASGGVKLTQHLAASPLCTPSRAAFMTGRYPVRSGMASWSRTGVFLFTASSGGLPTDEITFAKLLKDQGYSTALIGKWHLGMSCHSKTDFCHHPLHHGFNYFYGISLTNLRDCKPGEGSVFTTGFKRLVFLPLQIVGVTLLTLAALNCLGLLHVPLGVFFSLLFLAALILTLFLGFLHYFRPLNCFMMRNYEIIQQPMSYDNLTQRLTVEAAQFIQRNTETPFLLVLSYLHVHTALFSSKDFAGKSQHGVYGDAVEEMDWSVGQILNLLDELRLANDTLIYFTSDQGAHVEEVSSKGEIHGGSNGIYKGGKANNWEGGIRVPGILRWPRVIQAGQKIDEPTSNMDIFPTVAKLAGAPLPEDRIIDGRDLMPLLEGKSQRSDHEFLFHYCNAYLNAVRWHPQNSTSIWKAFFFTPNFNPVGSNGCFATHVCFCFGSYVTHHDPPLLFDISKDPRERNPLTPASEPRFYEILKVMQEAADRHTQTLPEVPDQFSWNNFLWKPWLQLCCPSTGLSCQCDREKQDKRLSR
Description: Plate assay, % inhibition.

The target of data set [3] is T2, steroid sulphatase (Homo sapiens, UniProt P08842).
T2 construct: Sulphatase-positive human placenta from normal term pregnancies are thoroughly minced with scissors; from tissue; host or cells: human term placenta (2000 g supernatant / microsomes)
Description: Inhibition of steroid sulphatase activity in placental microsomes (Protocol 2). To be noted: for inhibition at 0.01 µM / inhibition at 0.1 µM / inhibition at 10 µM: read-out: Placental Microsomes, % inhibition. Format: biochemical.
Description: Inhibition of Steroid Sulphatase Activity in Placental Microsomes
Sulphatase-positive human placenta from normal term pregnancies are thoroughly minced with scissors and washed once with cold phosphate buffer (pH 7.4, 50 mM) then re-suspended in cold phosphate buffer (5 ml/g tissue). Homogenisation is accomplished with an Ultra-Turrax homogeniser, using three 10 second bursts separated by 2 minute cooling periods in ice. Nuclei and cell debris are removed by centrifuging (4° C.) at 2000 g for 30 minutes and portions (2 ml) of the supernatant are stored at 20° C.
Incubations (1 ml) are carried out using a protein concentration of 100 mg/ml, substrate concentration of 20 mM [6,7–3H]oestrone-3-sulphate (specific activity 60 Ci/mmol from New England Nuclear, Boston, Mass., U.S.A.) and an incubation time of 20 minutes at 37° C. If necessary eight concentrations of compounds are employed: 0 (i.e. control); 0.05 mM; 0.1 mM; 0.2 mM; 0.4 mM; 0.6 mM; 0.8 mM; 1.0 mM. After incubation each sample is cooled and the medium (1 ml) was pipetted into separate tubes containing [14C]oestrone (7×10^3 dpm) (specific activity 97 Ci/mmol from Amersham International Radiochemical Centre, Amersham, U.K.). The mixture is shaken thoroughly for 30 seconds with toluene (5 ml). […] A portion (2 ml) of the organic phase was removed, evaporated and the 3H and 14C content of the residue determined by scintillation spectrometry. The mass of oestrone-3-sulphate hydrolysed is calculated from the 3H counts obtained (corrected for the volumes of the medium and organic phase used, and for recovery of [14C]oestrone added) and the specific activity of the substrate.

In data set [4] the target is T3, E1-STS enzyme (Homo sapiens, UniProt P08842).
T3 sequence (P08842 22-583): T1 sequence (P08842 22-583)
Particulars: cited from earlier work.

The test system of data set [5] is Meth A sarcoma, B16 melanoma or MDA-MB-435 estrogen receptor negative (ER−) breast cancer cells. Particulars: subcutaneous injection of tumour cells; cited from earlier work.
Data set [6] has as its system tubulin. Particulars: at high concentrations; cited from earlier work.
For data set [7], the system named is T47D cells. Description: IC50 in T47D cells (table footnote). It is filed as cell-based. Particulars: Homo sapiens. The procedure:
The STS inhibition provided by the compounds was determined in accordance with a plate assay and the Protocols set out herein.

The conditions of data set [8]: in vivo; cited from earlier work.
The conditions of data set [9]: rats; cited from earlier work.
The conditions of data set [10]: rats, higher than that of estradiol; cited from earlier work.
Where [11] appears, read: read-out: Plate assay % inhibition.
[12] abbreviates: 0.1 μM, -ve % means stimulation.
The mark [13] stands for this setting: 10 nM, superscript 1 or 2 = run with the reference values of that footnote, -ve % means stimulation.
The mark [14] stands for this setting: 1 μM, superscript 1 or 2 = run with the reference values of that footnote, -ve % means stimulation.
The mark [15] stands for this setting: 0.1 μM, read-out: Plate Assay, % inhibition.
[16] abbreviates: 1 μM, read-out: Plate Assay, % inhibition.
Setting [17] is: 10 μM, read-out: Plate Assay, % inhibition.

For `COc1cc2c(cc1O)CCC1C2CC[C@@]2(C)C1CC[C@@]2(O)Cc1cccc(Br)c1` (stereo partly drawn), the melting point was 173 to 177 °C.

For the molecule `C[C@]12CCC3c4ccc(O)cc4CCC3C1CC[C@@]2(O)Cc1ccccn1` (stereo partly drawn), the melting point is 250 to 255 °C.

Turning to `CC1=C2CCC3c4ccc(OS(N)(=O)=O)cc4CCC3C2CC1` (stereo not drawn) [BLE00086], the inhibition at 10 µM in data set [1] was 93.2%. Moreover, in data set [2] (setting [11]), the inhibition at 0.1 µM came out at 8%, the inhibition at 1 µM is 3% and the inhibition at 10 µM worked out at 14%.

Molecule `COc1cc2c(cc1O)CCC1C2CC[C@@]2(C)C1CC[C@@]2(O)Cc1ccc(C(C)(C)C)cc1` (stereo partly drawn) [BLE01008, 3,17β-Dihydroxy-17α-(4-tert-butylbenzyl)-2-methoxyestra-1,3,5(10)-triene] showed a melting point of 223 to 225 °C. For the same molecule, in data set [2] (setting [11]), the inhibition at 0.1 µM is -12% and the inhibition at 1 µM is -15%.

Turning to `COc1cc2c(cc1O)CCC1C2CC[C@@]2(C)C1CC[C@@]2(O)Cc1ccccc1` (stereo partly drawn) [BLE01014, 3,17β-Dihydroxy-17α-benzyl-2-methoxyestra-1,3,5(10)-triene], the melting point was 209 to 213 °C. Moreover, in data set [2] (setting [11]), the inhibition at 0.1 µM was -14% and the inhibition at 1 µM was -14%.

For `CN(C)S(=O)(=O)O[C@H]1CCC2C3CCc4cc(O)ccc4C3CC[C@@]21C` (stereo partly drawn) [BLE99067], the “Plate assay % inhibition” value in data set [2] (setting [12]) is recorded as −5%; in data set [2] (1 μM, -ve % means stimulation), −1%; in data set [2] (10 μM, -ve % means stimulation), 50%. Also, the “Placental Microsomes % inhibition” value in [3] (setting [13]) is given as −0.1^1%; in data set [3] (setting [14]), 8.7^1%.

`C[C@]12CCC3c4ccc(OS(N)(=O)=O)cc4CCC3C1CC[C@H]2OS(=O)(=O)N(Cc1ccccc1)Cc1ccccc1` (stereo partly drawn) [BLE99068]: the “Plate assay % inhibition” value in [2] (setting [12]) was −18%; in data set [2] (1 μM, -ve % means stimulation) it was −1%; in data set [2] (10 μM, -ve % means stimulation), 19%. Besides, the “Placental Microsomes % inhibition” value in data set [3] (setting [13]) was 4.9^1%; in data set [3] (setting [14]), 58.2^1%.

Consider `CN(C)S(=O)(=O)OC1CCC2C3CCc4cc(OS(N)(=O)=O)ccc4C3CCC12C` (stereo not drawn) [BLE99069], for which the “Plate assay % inhibition” value in [2] (setting [12]) stood at 3%; in [2] (1 μM, -ve % means stimulation), 10%. Moreover, the figures for the “Placental Microsomes % inhibition” value in [3] (setting [13]) and in data set [3] (setting [14]) were 30.3^1% and 96.3^1%, respectively.

`COc1cc2c(cc1OS(N)(=O)=O)CC[C@@H]1[C@@H]2CC[C@]2(C)C(=O)CC[C@@H]12` [Compound 2-MOEMATE, 2-methoxyoestrone-3-O-sulphamate, reference compound]: the “potency as a steroid sulphatase inhibitor relative to EMATE” value in [4] is given as “equipotent with EMATE”. For the same molecule, the “Plate assay % inhibition” value in data set [2] (setting [12]) worked out at 15%; in data set [2] (1 μM, -ve % means stimulation), 42%; in data set [2] (10 μM, -ve % means stimulation), 88%.

Take `COc1cc2c(cc1O)CC[C@@H]1[C@@H]2CC[C@]2(C)[C@@H](O)CC[C@@H]12` [Compound 2-MeOE2, 2-methoxyoestradiol]: the “growth of tumours in vivo” value in data set [5] is on record as “inhibits the growth of tumours”. Moreover, the “inhibition of colchicine binding to tubulin” value in [6] is reported as “weak inhibitor of colchicine binding to tubulin”.

As for `CSc1cc2c(cc1OS(N)(=O)=O)CCC1C2CCC2(C)C1CCC2(O)Cc1ccc(C(C)(C)C)cc1` (stereo not drawn) [Compound 3], the inhibition at 0.1 µM was under 1% in [2] (setting [15]) and 56% in data set [3] (100 nM). Moreover, in data set [2] (setting [16]), the inhibition at 1 µM was under 1%. The inhibition at 10 µM in [2] (setting [17]) came out at 48%; in data set [3] (10 μM) it was 86.4%. Moreover, the inhibition at 0.01 µM in [3] (10 nM) is 17.6%. Moreover, the IC50 in data set [3] (read-out: Placental Microsomes, IC50) is 80 nM.

In turn, `CSc1cc2c(cc1OS(N)(=O)=O)CCC1C2CCC2(C)C(=O)CCC12` (stereo not drawn) [Compound 7] had an IC50 in data set [7] of 2.5 nM. Also, the inhibition at 0.1 µM in data set [2] (setting [15]) stood at 3%. The inhibition at 1 µM in [2] (setting [16]) amounted to 53%. Moreover, in [2] (setting [17]), the inhibition at 10 µM amounted to 55%. Also, in data set [3] (10 nM), the inhibition at 0.01 µM amounted to 5.4%.

For the molecule `NS(=O)(=O)Oc1ccc2oc3ccccc3c2c1` [Compound 9], the “Plate assay % inhibition” value is given as under 1% in data set [2] (0.1 μM), 1% in data set [2] (1 μM) and 16% in data set [2] (10 μM). Moreover, the “Placental Microsomes % inhibition” value in [3] (10 nM) was under 5%; in [3] (column head printed "μM"), 66.0%.

Consider `C[C@]12CC[C@@H]3c4ccc(OS(=O)(=O)O)cc4CC[C@H]3[C@@H]1CCC2=O` [Compound E1S, oestrone sulphate], for which the half-life in blood in data set [8] is 10 to 12 h.

For `CC12CCC3c4ccc(OS(N)(=O)=O)cc4CCC3C1CCC2=O` (stereo not drawn) [EMATE, oestrone-3-sulphamate, reference compound], the memory effect entry in [9] is listed as “memory enhancing effect”. Further, in data set [4], the “mode of E1-STS inhibition” value is “time- and concentration-dependent manner”. In [10], the “oral uterotrophic activity relative to estradiol” value is on record as 100 times. In [3], 18 nM corresponded to half-maximal inhibition (IC50), the inhibition at 0.01 µM was found to be 27.3%, the inhibition at 0.1 µM worked out at 85.1% and the inhibition at 10 µM was 99.5%. Also, the “Placental Microsomes % inhibition” value in data set [3] (human) turned out to be 97.8%.

For the molecule oestrone-3-N-sulphamate, the “mode of E1-STS inhibition” value in data set [4] is “weaker non-time-dependent inactivators”.

On to oestrone-3-S-sulphamate, for which the “mode of E1-STS inhibition” value in data set [4] is given as “weaker non-time-dependent inactivators”.
